Test results published in paper PMC11255275, “Structural insights into the triple agonism at GLP-1R, GIPR and GCGR manifested by retatrutide” (Cell Discovery, 2024).

Columns and labels:
Test in all cases: cAMP accumulation, single-point mutated GCGR
[1] = molecular target: T1, GCGR mutants (Homo sapiens, UniProt P47871, Y138L); format: cell-based; conditions: GCGR Y138(1.36b)L, HEK-293T, 40 min, TR-FRET, mean ± S.E.M., n at least 3
T1 construct: expressed in transfected cells; host or cells: HEK-293T
T1 sequence (P47871 26-477 Y138L): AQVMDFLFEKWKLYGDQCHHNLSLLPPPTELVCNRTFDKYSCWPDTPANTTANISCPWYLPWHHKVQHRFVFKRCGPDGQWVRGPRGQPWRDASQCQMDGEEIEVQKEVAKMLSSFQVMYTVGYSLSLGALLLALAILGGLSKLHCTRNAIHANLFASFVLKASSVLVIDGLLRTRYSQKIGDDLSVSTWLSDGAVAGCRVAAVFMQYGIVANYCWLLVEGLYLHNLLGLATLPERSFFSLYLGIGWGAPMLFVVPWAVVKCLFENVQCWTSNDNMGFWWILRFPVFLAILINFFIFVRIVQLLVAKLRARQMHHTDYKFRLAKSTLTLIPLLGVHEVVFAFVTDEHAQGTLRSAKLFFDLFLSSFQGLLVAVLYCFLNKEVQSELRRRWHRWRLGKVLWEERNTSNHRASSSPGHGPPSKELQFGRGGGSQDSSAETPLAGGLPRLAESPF
Experimental: (§1) HEK-293T cells were maintained at 37°C in 5% CO2 incubator and seeded onto 6-well cell […]
(§2) culture plates before transfection. After overnight culture, the cells were transiently transfected […]
(§3) with various constructs using Lipofectamine 2000 transfection reagent (Invitrogen). After 24 h, […]
(§4) the transfected cells were seeded onto 384-microtiter plates at a density of 3,000 cells per well […]
(§5) in stimulation buffer (HBSS supplemented with 5 mM HEPES, 0.1% (w/v) casein and 0.5 mM […]
(§6) 3-isobutyl-1-methylxanthine). Different concentrations of retatrutide in stimulation buffer were […]
(§7) added, and the stimulation lasted for 40 min. The reaction was stopped by addition of cAMP […]
(§8) detection buffer containing Eu-cAMP tracer and ULight-anti-cAMP. Plates were then incubated for […]
(§9) 60 min at RT. Time-resolved FRET signals were measured at 620 nm and 665 nm, respectively, by […]
(§10) an EnVision multilabel plate reader (PerkinElmer). Data were analyzed in GraphPad PRISM 9.5 […]
(§11) and all values were normalized to that of the wild-type (WT).
(§12) Supplementary Fig. 5 Effects of receptor mutation on retatrutide-induced cAMP […]
(§13) accumulation. a-c, Signaling profiles of GLP-1R (a), GIPR (b) and GCGR (c) mutants. cAMP […]
(§14) accumulation was measured in wild-type (WT) and single-point mutated GLP-1R, GIPR or […]
(§15) GCGR expressing HEK-293T cells. cAMP levels were normalized to the maximum response […]
(§16) of the WT and dose-response curves were analyzed using a three-parameter logistic equation.
(§17) Data were generated and graphed as means ± S.E.M. of at least three independent experiments performed in quadruplicate.
(§18) (1 picture or pasted object on this page, not shown here)
(§19) Supplementary Ta b l e S 5 Effects of the ligand-binding pocket residue mutation on retatrutide- […]
(§20) induced cAMP signaling at GLP-1R, GIPR or GCGR. […]
(§21) cAMP levels were normalized to the maximum response of the wild-type (WT) and dose-response […]
(§22) curves were analyzed using a three-parameter logistic equation to obtain pEC50 and Emax values. The […]
(§23) experiments were carried out independently at least three times. Data shown are means ± S.E.M. One- […]
(§24) way ANOVA was used to determine statistical difference. N.D., values that could not be determined due […]
(§25) to incomplete curve fits. *P< 0.05, **P< 0.01, ***P< 0.001 and ****P<0.0001.

[2] = molecular target: T2, GCGR mutants (Homo sapiens, UniProt P47871, S297A); format: cell-based; conditions: GCGR S297(ECL2)A; HEK-293T, 40 min, TR-FRET; mean ± S.E.M., n at least 3
T2 construct: expressed in transfected cells; host or cells: HEK-293T
T2 sequence (P47871 26-477 S297A): as the sequence (P47871 26-477 Y138L) above, with L113Y, S272A counted along it
Experimental: as §1, §2, §3, §4, §5, §6, §7, §8, §9, §10, §11, §12, §13, §14, §15, §16, §17, §18, §19, §20, §21, §22, §23, §24, §25

[3] = molecular target: T3, GCGR mutants (Homo sapiens, UniProt P47871, Y138A); format: cell-based; conditions: GCGR Y138(1.36b)A, HEK-293T, 40 min, TR-FRET, mean ± S.E.M., n at least 3
T3 construct: expressed in transfected cells; host or cells: HEK-293T
T3 sequence (P47871 26-477 Y138A): as the sequence (P47871 26-477 Y138L) above, with L113A counted along it
Experimental: as §1, §2, §3, §4, §5, §6, §7, §8, §9, §10, §11, §12, §13, §14, §15, §16, §17, §18, §19, §20, §21, §22, §23, §24, §25

[4] = system: GCGR mutants; format: cell-based, human; conditions: relative to WT
Experimental: as §1, §2, §3, §4, §5, §6, §7, §8, §9, §10, §11, §12, §13, §14, §15, §16, §17, §18, §19, §20, §21, §22, §23, §24, §25

[5] = molecular target: T4, GCGR mutants (Homo sapiens, UniProt P47871, I194K); format: cell-based; conditions: GCGR I194(2.67b)K, HEK-293T, 40 min, TR-FRET, mean ± S.E.M., n at least 3
T4 construct: expressed in transfected cells; host or cells: HEK-293T
T4 sequence (P47871 26-477 I194K): as the sequence (P47871 26-477 Y138L) above, with L113Y, I169K counted along it
Experimental: as §1, §2, §3, §4, §5, §6, §7, §8, §9, §10, §11, §12, §13, §14, §15, §16, §17, §18, §19, §20, §21, §22, §23, §24, §25

[6] = molecular target: T5, GCGR mutants (Homo sapiens, UniProt P47871, Y202A); format: cell-based; conditions: GCGR Y202(2.75b)A, HEK-293T, 40 min, TR-FRET, mean ± S.E.M., n at least 3
T5 construct: expressed in transfected cells; host or cells: HEK-293T
T5 sequence (P47871 26-477 Y202A): as the sequence (P47871 26-477 Y138L) above, with L113Y, Y177A counted along it
Experimental: as §1, §2, §3, §4, §5, §6, §7, §8, §9, §10, §11, §12, §13, §14, §15, §16, §17, §18, §19, §20, §21, §22, §23, §24, §25

[7] = molecular target: T6, GCGR mutants (Homo sapiens, UniProt P47871, Q131A); format: cell-based; conditions: GCGR Q131(1.29b)A; HEK-293T, 40 min, TR-FRET; mean ± S.E.M., n at least 3
T6 construct: expressed in transfected cells; host or cells: HEK-293T
T6 sequence (P47871 26-477 Q131A): as the sequence (P47871 26-477 Y138L) above, with Q106A, L113Y counted along it
Experimental: as §1, §2, §3, §4, §5, §6, §7, §8, §9, §10, §11, §12, §13, §14, §15, §16, §17, §18, §19, §20, §21, §22, §23, §24, §25

CC[C@H](C)[C@H](NC(=O)[C@H](Cc1ccccc1)NC(=O)[C@H](C)NC(=O)C(C)(C)NC(=O)[C@H](CCC(N)=O)NC(=O)[C@H](C)NC(=O)[C@H](CCCCNC(=O)COCCOCCNC(=O)CC[C@H](NC(=O)CCCCCCCCCCCCCCCCCCC(=O)O)C(=O)O)NC(=O)[C@H](CCCCN)NC(=O)[C@H](CC(=O)O)NC(=O)[C@H](CC(C)C)NC(=O)[C@](C)(CC(C)C)NC(=O)[C@@H](NC(=O)[C@H](CO)NC(=O)[C@H](Cc1ccc(O)cc1)NC(=O)[C@H](CC(=O)O)NC(=O)[C@H](CO)NC(=O)[C@@H](NC(=O)[C@H](Cc1ccccc1)NC(=O)[C@@H](NC(=O)CNC(=O)[C@H](CCC(N)=O)NC(=O)C(C)(C)NC(=O)[C@@H](N)Cc1ccc(O)cc1)[C@@H](C)O)[C@@H](C)O)[C@@H](C)CC)C(=O)N[C@@H](CCC(=O)O)C(=O)N[C@@H](Cc1ccc(O)cc1)C(=O)N[C@@H](CC(C)C)C(=O)N[C@@H](CC(C)C)C(=O)N[C@@H](CCC(=O)O)C(=O)NCC(=O)NCC(=O)N1CCC[C@H]1C(=O)N[C@@H](CO)C(=O)N[C@@H](CO)C(=O)NCC(=O)N[C@@H](C)C(=O)N1CCC[C@H]1C(=O)N1CCC[C@H]1C(=O)N1CCC[C@H]1C(=O)N[C@@H](CO)C(N)=O [retatrutide]
Emax ± S.E.M. (% WT) [1]: 100.64 ± 1.39 % WT | EC50 ([1]; *P < 0.05): 3.98 pM | EC50 [2]: 4.9 pM | Emax ± S.E.M. (% WT) [2]: 100.48 ± 1.34 % WT | Emax ± S.E.M. (% WT) [3]: 101.28 ± 2.08 % WT | EC50 ([3]; ****P < 0.0001): 195 pM | change of retatrutide potency by mutation ([4]; GCGR S297(ECL2)A): slightly increased | decrease of cAMP signaling potency by mutation ([4]; GCGR Y138(1.36b)A): 26.9 fold | change of cAMP signaling potency by mutation ([4]; GCGR Y138(1.36b)L): moderately increased | Emax ± S.E.M. (% WT) [5]: 101.55 ± 2.54 % WT | EC50 ([5]; ****P < 0.0001): 263 pM | Emax ± S.E.M. (% WT) [6]: 100.47 ± 2.15 % WT | EC50 ([6]; ****P < 0.0001): 123 pM | EC50 [7]: 6.76 pM
